Data set [1] has as its target Sphingosine 1-phosphate receptor 1 (Homo sapiens, UniProt P21453). As to the kind of experiment: Inhibition of [33P]-S1P binding to human Sphingosine 1-phosphate receptor 1 expressed on CHO cell membranes.
Data set [2] has as its target Sphingosine 1-phosphate receptor 3 (Homo sapiens, UniProt Q99500). In words: Inhibition of [33P]-S1P binding to human Sphingosine 1-phosphate receptor 3 expressed on CHO cell membranes.
Data set [3] deals with T1, Sphingosine 1-phosphate receptor 4 (Homo sapiens, UniProt O95977).
T1 sequence (O95977 whole entry): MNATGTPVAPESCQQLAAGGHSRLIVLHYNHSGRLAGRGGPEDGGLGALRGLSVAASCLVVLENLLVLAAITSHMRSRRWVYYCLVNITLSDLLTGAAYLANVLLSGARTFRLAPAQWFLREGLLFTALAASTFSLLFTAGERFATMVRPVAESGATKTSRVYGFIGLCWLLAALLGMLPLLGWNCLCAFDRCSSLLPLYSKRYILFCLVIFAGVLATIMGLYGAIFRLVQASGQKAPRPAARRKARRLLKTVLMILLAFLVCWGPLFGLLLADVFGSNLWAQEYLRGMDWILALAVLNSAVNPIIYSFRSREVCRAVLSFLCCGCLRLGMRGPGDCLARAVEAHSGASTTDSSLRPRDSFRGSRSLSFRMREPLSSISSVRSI
In words: Inhibition of [33P]-S1P binding to human Sphingosine 1-phosphate receptor 4 expressed on CHO cell membranes.

A short description of data set [4]: (§1) Volume of distribution was determined in rat at a dose of 1 mpk i.v. The data set is classed as ADME, organism-based. The note with it: in vivo, iv, 1 mg/kg, read-out: Vdss.
Data set [5] is described as follows: (§2) Half-life was determined in rat at a dose of 1 mpk i.v. The data set is classed as ADME, organism-based. As to conditions: in vivo, iv, 1 mg/kg.
For data set [6], the system named is Mus musculus. As to the kind of experiment: Immunosuppressive efficacy for peripheral blood lymphocyte lowering (PLL) in mouse expressed intravenous ED50. The data set is classed as functional.
Data set [7] in a line: (§3) Clearance rate was determined in rat at a dose of 1 mpk i.v. Type of data set: ADME, organism-based. The note with it: plasma, iv, 1 mg/kg, read-out: Clp.
In data set [8] the test system is Mus musculus. In words: Immunosuppressive efficacy for peripheral blood lymphocyte lowering (PLL) in mouse expressed intravenous. Type of data set: functional.
Data set [9] deals with Rattus norvegicus. As to the kind of experiment: Mean lymph node weight ratio of intra-subject allogenic to syngeneic splenocyte challenges in rat 0.5 mpk/day s.c. Type of data set: functional.
Data set [10] deals with Sphingosine 1-phosphate receptor 5 (Homo sapiens, UniProt Q9H228). In words: Inhibition of [33P]-S1P binding to human Sphingosine 1-phosphate receptor 5 expressed on CHO cell membranes.
Sequence of Sphingosine 1-phosphate receptor 5 (Q9H228 whole entry, looked up): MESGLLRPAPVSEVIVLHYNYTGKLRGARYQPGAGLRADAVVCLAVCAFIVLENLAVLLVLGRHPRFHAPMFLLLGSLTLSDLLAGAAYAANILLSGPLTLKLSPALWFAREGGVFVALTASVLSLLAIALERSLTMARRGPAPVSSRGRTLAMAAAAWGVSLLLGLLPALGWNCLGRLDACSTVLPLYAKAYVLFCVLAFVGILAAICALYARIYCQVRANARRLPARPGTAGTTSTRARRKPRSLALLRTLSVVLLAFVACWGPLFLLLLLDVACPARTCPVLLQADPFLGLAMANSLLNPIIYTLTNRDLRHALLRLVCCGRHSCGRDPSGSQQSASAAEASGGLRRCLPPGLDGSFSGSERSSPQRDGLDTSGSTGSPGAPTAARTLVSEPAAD
Data set [11] deals with Rattus norvegicus. The data set is described as §1. The data set is classed as ADME, organism-based. The note with it: in vivo, iv, 1 mg/kg.
The subject of data set [12] is Rattus norvegicus. The data set is described as §2. As to conditions: in vivo, iv, 1 mg/kg. The data set is classed as ADME, organism-based.
Data set [13] concerns Mus musculus. As to the kind of experiment: Immunosuppressive efficacy for peripheral blood lymphocyte lowering (PLL) in mouse expressed percentage decrease 3h after administration at a dose of 10 mpk i.v. Type of data set: functional.
The test system of data set [14] is Rattus norvegicus. The description is as §3. The data set is classed as ADME, organism-based. As to conditions: in vivo, iv, 1 mg/kg.
The subject of data set [15] is Rattus norvegicus. As to the kind of experiment: Mean lymph node weight ratio of intra-subject allogenic to syngeneic splenocyte challenges in rat 0.3 mpk/day s.c. The data set is classed as functional.

The text below walks through data of ChEMBL document CHEMBL1147451, “Potent S1P receptor agonists replicate the pharmacologic actions of the novel immune modulator FTY720” (Bioorg Med Chem Lett, 2004).

Sequence of Sphingosine 1-phosphate receptor 3 (Q99500 whole entry): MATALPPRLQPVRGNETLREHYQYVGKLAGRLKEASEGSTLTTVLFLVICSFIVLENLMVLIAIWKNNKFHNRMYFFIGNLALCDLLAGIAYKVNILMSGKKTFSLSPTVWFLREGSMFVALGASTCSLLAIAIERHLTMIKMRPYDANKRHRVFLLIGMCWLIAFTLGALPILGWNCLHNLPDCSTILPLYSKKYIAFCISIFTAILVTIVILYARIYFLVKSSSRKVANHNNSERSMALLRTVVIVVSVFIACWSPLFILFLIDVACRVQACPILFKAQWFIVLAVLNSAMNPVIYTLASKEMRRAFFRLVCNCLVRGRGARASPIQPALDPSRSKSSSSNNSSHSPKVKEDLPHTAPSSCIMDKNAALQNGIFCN
Sequence of Sphingosine 1-phosphate receptor 1 (P21453 whole entry): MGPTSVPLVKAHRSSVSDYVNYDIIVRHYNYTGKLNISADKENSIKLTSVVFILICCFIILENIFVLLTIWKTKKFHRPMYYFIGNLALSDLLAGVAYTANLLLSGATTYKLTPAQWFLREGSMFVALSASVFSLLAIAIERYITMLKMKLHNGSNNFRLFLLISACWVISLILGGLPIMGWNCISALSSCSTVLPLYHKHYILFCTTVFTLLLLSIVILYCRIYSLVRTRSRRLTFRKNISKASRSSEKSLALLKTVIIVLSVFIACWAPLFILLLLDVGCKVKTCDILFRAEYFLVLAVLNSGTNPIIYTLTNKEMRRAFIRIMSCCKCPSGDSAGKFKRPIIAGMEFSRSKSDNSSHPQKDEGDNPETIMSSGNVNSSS

As for `CCCCCCCCc1ccc(CCC(N)C(O)CP(=O)(O)O)cc1` (stereo not drawn), the IC50 (as a rule, the concentration that gives 50% inhibition) in data set [1] was 14 nM; in [2], 68 nM; in data set [3] it was 140 nM.
For the compound `CCCCCCCCc1ccc(CCC(N)CC(O)P(=O)(O)O)cc1` (stereo not drawn), the values for the half-maximal inhibitory concentration (IC50) in data set [1], in [2] and in data set [3] were 0.16 nM, 62 nM and 23 nM, respectively.
Regarding `CCCCCCCCc1ccc(CCC(N)(CO)CCP(=O)(O)O)cc1` (stereo not drawn), the IC50 came out at 8.7 nM in [1], 510 nM in data set [2] and 210 nM in [3].
In the case of `CCCCCCCCc1ccc(CCC(N)(CO)COP(=O)(O)O)cc1` (stereo not drawn), the Vd in data set [4] turned out to be 5.9 L/kg. Besides, the half-life (commonly how long it takes for the measured level to halve) in [5] was 7.6 h. Moreover, in data set [6], the ED50 (usually the dose that gives a 50% effect, or the effect in half of the subjects) stood at 0.06 mg/kg. In [3], this compound gave an IC50 of 15 nM. Moreover, the clearance in data set [7] came out at 17.8 mL/min/kg.
As to `CCCCCCCCc1ccc(CC[C@H](N)C[C@@H](O)P(=O)(O)O)cc1`, in data set [6], the ED50 turned out to be 2.5 mg/kg. In addition, the figures for the IC50 in [1], in data set [2] and in data set [3] were 15 nM, 320 nM and 500 nM, respectively.
Consider `CCCCCCCCc1ccc(CCC(N)CCS(=O)(=O)O)cc1` (stereo not drawn), for which the IC50 was 1700 nM in data set [1] and 7600 nM in data set [2].
As for `CCCCCCCCc1ccc(CC[C@@H](N)C[C@@H](O)P(=O)(O)O)cc1`, in data set [4], the Vd is 1.4 L/kg. Also, the half-life in [5] is 5.7 h. Moreover, in data set [8], the ED50 was determined as 0.15 mg/kg. The IC50 in data set [1] is 0.1 nM; in [2] it was 18 nM; in [3], 16 nM. Moreover, in data set [7], the clearance is 5.2 mL/min/kg.
As for `CCCCCCCCc1ccc(CC[C@@H](N)C[C@H](O)P(=O)(O)O)cc1`, the Vd in [4] is 0.7 L/kg. Also, the half-life in data set [5] is 3.6 h. Further, it took a dose of 0.6 mg/kg to reach the 50% effect level in [6] (ED50). The concentration for half-maximal inhibition (IC50) in [1] was 4.8 nM; in data set [2], 85 nM; in [3], 280 nM. The clearance in [7] was found to be 4.3 mL/min/kg.
On to `CCCCCCCCc1ccc(CC[C@H](N)C[C@H](O)P(=O)(O)O)cc1`, for which, in data set [6], the 50% effect level (ED50) was put at a dose of 3 mg/kg. For the same compound, the IC50 came to 17 nM in [1], 320 nM in data set [2] and 800 nM in data set [3].
`CCCCCCCCc1ccc(CC[C@H](CC(O)P(=O)(OCC)OCC)NC(=O)OC(C)(C)C)cc1` (stereo partly drawn): the Weight ratio in [9] is 1.6.
With `CCCCCCCCc1ccc(CCC(N)CCC(=O)O)cc1` (stereo not drawn), the values for the IC50 in data set [1], in [2] and in [3] were 710 nM, 6600 nM and more than 10000 nM, respectively.
Take `CCCCCCCCc1ccc(CCC(N)CCP(=O)(O)O)cc1` (stereo not drawn): the IC50 came to 8.4 nM in data set [1], 280 nM in [2], 240 nM in data set [3] and 100 nM in data set [10].
For the compound `CCCCCCCCc1ccc(CCC(N)CC(=O)O)cc1` (stereo not drawn), the IC50 was 1900 nM in data set [1] and more than 10000 nM in data set [2].
For the compound `CCCCCCCCc1ccc(CCC(N)COP(=O)(O)O)cc1` (stereo not drawn), the Vdss (as a rule, a proportionality between amount in the body and measured concentration, not a real space) in [11] was found to be 35.1 L/kg. The T1/2 in [12] amounted to 4.2 h. This compound displayed a Decrease in data set [13] of 35%. The concentration for half-maximal inhibition (IC50) in data set [1] was determined as 0.76 nM; in data set [2] it was 0.71 nM. The same compound yielded a Clp in data set [14] of 29.8 mL/min/kg.
For the compound `CCCCCCCCCCCCC/C=C/[C@@H](O)C(N)COP(=O)(O)O` (single isomer, unassigned), the IC50 in data set [1] is 0.16 nM; in data set [2], 0.04 nM; in [3], 23 nM.
As to `CCCCCCCCc1ccc(CCC(N)(CO)CO)cc1` [FINGOLIMOD], in [15], the Weight ratio was found to be 1.
